Test results as given in ChEMBL document CHEMBL1201862, “PubChem BioAssay data set” (2004).
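In this assay, cells in 96-well plates receive the compound at five concentrations for 48 hours. Endpoints are linearly interpolated between the surrounding concentrations. GI50 = concentration required for 50% inhibition of growth.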 The source made the active and inactive calls. No stated cut-off is given here; in the data, active = GI50 up to about 1.1 µM and inactive = higher.

Assays:
Assay in all cases: inhibition of tumour cell growth, NCI panel, 48 h
[1] = test system: T47D
[2] = test system: CCRF-CEM
[3] = test system: K562
[4] = test system: HL-60
[5] = test system: SK-MEL-5
[6] = test system: RXF 393
[7] = test system: HCT-116
[8] = test system: UO-31
[9] = test system: SF-268
[10] = test system: Malme-3M
[11] = test system: IGROV-1
[12] = test system: UACC-257
[13] = test system: BT-549
[14] = test system: OVCAR-8
[15] = test system: SR
[16] = test system: SF-539
[17] = test system: MCF7
[18] = test system: LOX IMVI
[19] = test system: HOP-62
[20] = test system: SK-MEL-28

Row | Compound | GI50 [1] | GI50 [2] | GI50 [3] | GI50 [4] | GI50 [5] | GI50 [6] | GI50 [7] | GI50 [8] | GI50 [9] | GI50 [10] | GI50 [11] | GI50 [12] | GI50 [13] | GI50 [14] | GI50 [15] | GI50 [16] | GI50 [17] | GI50 [18] | GI50 [19] | GI50 [20]
1 | CC(=O)OCC1CCC(=C2C(=O)OC(C)(C)OC2=O)N1 (stereo not given) | > 100 µM (inactive) | > 100 µM (inactive) | > 100 µM (inactive) | > 100 µM (inactive) | > 100 µM (inactive) | > 100 µM (inactive) | > 100 µM (inactive) | > 100 µM (inactive) | > 100 µM (inactive) | > 100 µM (inactive) | > 100 µM (inactive) | > 100 µM (inactive) | > 100 µM (inactive) | > 100 µM (inactive) | > 100 µM (inactive) | > 100 µM (inactive) | > 100 µM (inactive) | > 100 µM (inactive) | > 100 µM (inactive) | > 100 µM (inactive)
2 | O=C1C(NCCO)=C(N2CC2)C(=O)C(NCCO)=C1N1CC1 | > 69.2 µM (inactive) | 17.9 µM (inactive) | 39.5 µM (inactive) | 13.2 µM (inactive) | 50 µM (inactive) | 71.3 µM (inactive) | 29.6 µM (inactive) | 51.9 µM (inactive) | 30.8 µM (inactive) | > 100 µM (inactive) | > 97.5 µM (inactive) | > 74.3 µM (inactive) | > 69 µM (inactive) | 37.1 µM (inactive) | 16.8 µM (inactive) | 39.4 µM (inactive) | > 100 µM (inactive) | 17.1 µM (inactive) | 27.4 µM (inactive) | > 100 µM (inactive)
3 | CCOC(=O)c1ccc(/N=N/N(C)C(=O)C(C)N)cc1 (stereo not given) | > 100 µM (inactive) | > 100 µM (inactive) | > 100 µM (inactive) | > 100 µM (inactive) | > 100 µM (inactive) | > 100 µM (inactive) | > 100 µM (inactive) | 88.7 µM (inactive) | > 100 µM (inactive) | > 100 µM (inactive) | 72.4 µM (inactive) | > 100 µM (inactive) | 98.6 µM (inactive) | > 100 µM (inactive) | 36.1 µM (inactive) | > 100 µM (inactive) | > 100 µM (inactive) | > 100 µM (inactive) | > 100 µM (inactive) | > 100 µM (inactive)
4 | CCN1C/C(=C\c2cc(OC)c(OC)c(OC)c2)C2=NN(c3ccccc3)C(c3cc(OC)c(OC)c(OC)c3)C2C1 (stereo not given) | 3.53 µM (inactive) | 1.81 µM (inactive) | 1.65 µM (inactive) | 3.03 µM (inactive) | 3.74 µM (inactive) | 0.75 µM (active) | 1.89 µM (inactive) | 2.08 µM (inactive) | 0.365 µM (active) | 0.203 µM (active) | 6.43 µM (inactive) | 3.35 µM (inactive) | 6.75 µM (inactive) | 1.61 µM (inactive) | 2.03 µM (inactive) | 0.535 µM (active) | 6 µM (inactive) | 2.08 µM (inactive) | 0.855 µM (active) | 0.871 µM (active)
5 | N=C(N)NS(=O)(=O)c1ccc(NNC(=O)c2cccc3c(O)c4ccccc4nc23)cc1 | 17.7 µM (inactive) | 34.4 µM (inactive) | 24 µM (inactive) | 27 µM (inactive) | 17.1 µM (inactive) | 38.1 µM (inactive) | 24.5 µM (inactive) | 18.9 µM (inactive) | 33.7 µM (inactive) | 19.6 µM (inactive) | 24.9 µM (inactive) | 31.6 µM (inactive) | 21.7 µM (inactive) | 26.1 µM (inactive) | 35.6 µM (inactive) | 26.5 µM (inactive) | 16.3 µM (inactive) | 24.5 µM (inactive) | 22 µM (inactive) | 26.2 µM (inactive)
6 | COc1ccc(OC)c([N+](=O)[O-])c1-c1nc2sc(Cl)cn2c1/C=N/N=C(N)N | 17.8 µM (inactive) | 30.9 µM (inactive) | 7.53 µM (inactive) | 11.2 µM (inactive) | 14.4 µM (inactive) | 20.1 µM (inactive) | 58.3 µM (inactive) | 16.7 µM (inactive) | 20.8 µM (inactive) | 22.5 µM (inactive) | 12.9 µM (inactive) | 19.3 µM (inactive) | 16.8 µM (inactive) | 19.2 µM (inactive) | 14.2 µM (inactive) | 22.9 µM (inactive) | 9.89 µM (inactive) | 25 µM (inactive) | 55.8 µM (inactive) | 13.9 µM (inactive)
7 | CCCCCCCCCCCCCC/C(C(=O)O)=C(\C)C(=O)O | > 100 µM (inactive) | > 100 µM (inactive) | > 100 µM (inactive) | 58.3 µM (inactive) | > 100 µM (inactive) | > 100 µM (inactive) | > 100 µM (inactive) | > 100 µM (inactive) | > 100 µM (inactive) | > 100 µM (inactive) | > 100 µM (inactive) | > 100 µM (inactive) | > 100 µM (inactive) | > 100 µM (inactive) | 41.5 µM (inactive) | > 100 µM (inactive) | > 100 µM (inactive) | > 100 µM (inactive) | > 100 µM (inactive) | > 100 µM (inactive)
8 | COc1cccc(CCNc2c(C#N)c3nc4ccccc4n3c3ccccc23)c1 | 2.17 µM (inactive) | 0.736 µM (active) | 0.141 µM (active) | 0.34 µM (active) | 0.186 µM (active) | 0.607 µM (active) | 0.405 µM (active) | 2.81 µM (inactive) | 2.06 µM (inactive) | 0.239 µM (active) | 0.433 µM (active) | 0.851 µM (active) | 0.618 µM (active) | 0.807 µM (active) | 0.177 µM (active) | 0.548 µM (active) | 0.0775 µM (active) | 0.63 µM (active) | 10.5 µM (inactive) | 1.22 µM (inactive)
9 | O=C1NC(=O)C2C3C=CC(C12)C1C2C(=O)NC(=O)C2C31 (stereo not given) | > 250 µM (inactive) | 54.8 µM (inactive) | 234 µM (inactive) | 183 µM (inactive) | 195 µM (inactive) | 220 µM (inactive) | 211 µM (inactive) | 211 µM (inactive) | > 250 µM (inactive) | 187 µM (inactive) | 186 µM (inactive) | 238 µM (inactive) | > 250 µM (inactive) | 203 µM (inactive) | 135 µM (inactive) | 191 µM (inactive) | 164 µM (inactive) | 241 µM (inactive) | 74.3 µM (inactive) | 222 µM (inactive)
10 | Cc1nn(C(=O)c2ccncc2)c2c1C(c1ccc([N+](=O)[O-])cc1)SC(=N)N2 (stereo not given) | > 100 µM (inactive) | > 100 µM (inactive) | > 100 µM (inactive) | > 100 µM (inactive) | > 100 µM (inactive) | > 100 µM (inactive) | > 100 µM (inactive) | > 100 µM (inactive) | > 100 µM (inactive) | > 100 µM (inactive) | > 100 µM (inactive) | > 100 µM (inactive) | > 100 µM (inactive) | > 100 µM (inactive) | > 100 µM (inactive) | > 100 µM (inactive) | > 100 µM (inactive) | > 100 µM (inactive) | > 100 µM (inactive) | > 100 µM (inactive)
